In ChEMBL document CHEMBL2073854, “Localization and function of the organic anion-transporting polypeptide Oatp2 in rat liver” (Gastroenterology, 1999):

Key:
[1] = target: T1, Solute carrier organic anion transporter family member 1A4 (Rattus norvegicus, UniProt O35913); experiment: (§1) TP_TRANSPORTER: uptake in Xenopus laevis oocytes; assay type: functional, cell-based; details: oocyte
T1 sequence (O35913 whole entry): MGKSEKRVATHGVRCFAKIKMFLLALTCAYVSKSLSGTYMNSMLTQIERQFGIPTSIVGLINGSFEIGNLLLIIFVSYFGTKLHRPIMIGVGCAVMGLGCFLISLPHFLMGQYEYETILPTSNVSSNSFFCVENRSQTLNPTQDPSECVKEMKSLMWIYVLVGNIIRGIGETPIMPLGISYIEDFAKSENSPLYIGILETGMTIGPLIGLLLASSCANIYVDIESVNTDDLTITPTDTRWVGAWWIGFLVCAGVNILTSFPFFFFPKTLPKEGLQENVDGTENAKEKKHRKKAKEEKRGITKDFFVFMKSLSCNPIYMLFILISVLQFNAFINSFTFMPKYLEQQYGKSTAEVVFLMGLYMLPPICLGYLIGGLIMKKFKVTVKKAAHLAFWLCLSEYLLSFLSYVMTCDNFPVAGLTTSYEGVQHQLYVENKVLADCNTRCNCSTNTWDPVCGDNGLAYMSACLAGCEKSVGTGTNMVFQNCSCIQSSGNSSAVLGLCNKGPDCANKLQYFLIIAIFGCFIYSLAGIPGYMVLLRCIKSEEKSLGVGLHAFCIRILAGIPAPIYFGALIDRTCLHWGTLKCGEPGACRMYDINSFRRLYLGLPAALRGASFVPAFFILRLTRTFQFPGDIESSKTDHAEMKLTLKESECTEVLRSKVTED

[2] = target: T2, Solute carrier organic anion transporter family member 1A1 (Rattus norvegicus, UniProt P46720); experiment: as §1; assay type: functional, cell-based; details: oocyte
T2 sequence (P46720 whole entry): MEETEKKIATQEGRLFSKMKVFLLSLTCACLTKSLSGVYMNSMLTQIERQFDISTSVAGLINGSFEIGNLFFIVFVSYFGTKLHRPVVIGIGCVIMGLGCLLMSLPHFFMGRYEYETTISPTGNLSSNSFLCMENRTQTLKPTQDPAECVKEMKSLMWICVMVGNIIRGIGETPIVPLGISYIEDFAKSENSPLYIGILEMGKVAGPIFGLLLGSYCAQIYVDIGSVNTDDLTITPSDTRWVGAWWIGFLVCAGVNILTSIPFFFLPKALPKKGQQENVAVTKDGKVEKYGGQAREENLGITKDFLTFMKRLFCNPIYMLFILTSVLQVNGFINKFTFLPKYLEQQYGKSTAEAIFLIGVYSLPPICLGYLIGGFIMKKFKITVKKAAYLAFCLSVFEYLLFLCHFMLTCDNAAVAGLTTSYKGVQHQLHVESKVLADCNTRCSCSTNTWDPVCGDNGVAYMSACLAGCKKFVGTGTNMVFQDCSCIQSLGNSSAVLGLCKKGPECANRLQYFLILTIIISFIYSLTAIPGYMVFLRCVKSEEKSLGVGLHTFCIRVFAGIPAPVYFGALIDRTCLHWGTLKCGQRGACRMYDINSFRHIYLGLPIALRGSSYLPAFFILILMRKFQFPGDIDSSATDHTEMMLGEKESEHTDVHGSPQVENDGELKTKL

[3] = substrate: CC(C)C[C@@H]1NC(=O)[C@@H](C(C)C)NC(=O)[C@@H]2CCCN2C(=O)[C@@H](CC(=O)O)NC(=O)[C@@H](Cc2c[nH]c3ccccc23)NC1=O; experiment: as §1; assay type: functional, cell-based, Oocyte
[4] = substrate: [H][C@]12CC[C@]3([H])[C@]([H])(CC[C@]4(C)C([C@H](C)CCC(=O)NCCS(=O)(=O)O)CC[C@@]34[H])[C@@]1(C)CC[C@@H](OS(=O)(=O)O)C2; experiment: as §1; assay type: functional, cell-based, Oocyte
[5] = substrate: C[C@H](CCC(=O)NCCS(=O)(=O)O)[C@H]1CC[C@H]2[C@@H]3[C@@H](O)C[C@@H]4C[C@H](O)CC[C@]4(C)[C@H]3CC[C@]12C; experiment: as §1; assay type: functional, cell-based, Oocyte
[6] = substrate: C[C@H](CCC(=O)NCCS(=O)(=O)O)[C@H]1CC[C@H]2[C@@H]3[C@H](O)C[C@@H]4C[C@H](O)CC[C@]4(C)[C@H]3CC[C@]12C; experiment: as §1; assay type: functional, cell-based, Oocyte
[7] = substrate: [H][C@@]12CC=C3C[C@@H](OS(=O)(=O)O)CC[C@]3(C)[C@@]1([H])CC[C@]1(C)C(=O)CC[C@@]21[H]; experiment: as §1; assay type: functional, cell-based, Oocyte

**Q.** How did the Activity [1] turn out when `O=C1OC(c2ccc(O)c(S(=O)(=O)[O-])c2)(c2ccc(O)c(S(=O)(=O)[O-])c2)c2c(Br)c(Br)c(Br)c(Br)c21.[Na+].[Na+]` [SULFOBROMOPHTHALEIN SODIUM] was run?
**A.** The Activity was “is not a substrate [-]”.

**Q.** Which Activity [2] does the source give for `C=CC1=C(C)/C(=C/c2[nH]c(Cc3[nH]c(/C=C4\NC(=O)C(C)=C4C=C)c(C)c3CCC(=O)O[C@@H]3OC(C(=O)O)[C@@H](O)C(O)C3O)c(CCC(=O)O)c2C)NC1=O` (some centres not stated) [BILIRUBIN MONOGLUCURONIDE] here?
**A.** The Activity was “substrate [+]”.

**Q.** What about the Activity [1] of the same molecule?
**A.** The Activity was “is not a substrate [-]”.

**Q.** GADOXETATE was tested. Which Activity [1] did it give?
**A.** Its Activity is “is not a substrate [-]”.

**Q.** How did the Activity [1] turn out when `C[C@H](CCC(=O)NCCS(=O)(=O)O)C1CC[C@H]2[C@@H]3CC[C@@H]4C[C@H](OS(=O)(=O)O)CC[C@]4(C)[C@H]3CC[C@]12C` (some centres not stated) was run?
**A.** The Activity was “is not a substrate [-]”.

**Q.** How did the Activity [1] turn out when `CCCCC/C=C\C\C=C/C=C/C=C/[C@@H](SC[C@@H](NC(=O)CC[C@H](N)C(=O)O)C(=O)NCC(=O)O)[C@@H](O)CCCC(=O)O` [LEUKOTRIEN C4] was run?
**A.** Its Activity is “is not a substrate [-]”.

B1: Solute carrier organic anion transporter family member 1A1 (Rattus norvegicus) (protein)
chain: T2 sequence (P46720 whole entry)
**Q.** How did the Km [3] turn out when B1 was run?
**A.** The Km was 600 µM.

**Q.** And the Km [4]?
**A.** The Km was 6 µM.

B2: Solute carrier organic anion transporter family member 1A4 (Rattus norvegicus) (protein)
chain: T1 sequence (O35913 whole entry)
**Q.** What does the source list for B2?
**A.** Km [3]: 30 µM; Km [5]: 17 µM; Km [6]: 12 µM; Km [7]: 17 µM
